# Laboratory results: publication PMC11873939, “Target Identification with Live-Cell Photoaffinity Labeling and Mechanism of Action Elucidation of ARN23765, a Highly Potent CFTR Corrector” (Journal of Medicinal Chemistry, 2025)
# Experiments:
# [1] = molecular target: T1, CFTR MSD1 (Homo sapiens, UniProt P13569); assay: Cycloheximide chase assay in transfected HEK293 cells; assay type: cell-based; conditions: HEK293, 10 nM 24 h, then 6 h of cycloheximide treatment
# T1 construct: MSD1 (residues 1–380); expressed in transfected cells; host or cells: HEK293 (transient, JetPEI)
# T1 sequence (P13569 1-380): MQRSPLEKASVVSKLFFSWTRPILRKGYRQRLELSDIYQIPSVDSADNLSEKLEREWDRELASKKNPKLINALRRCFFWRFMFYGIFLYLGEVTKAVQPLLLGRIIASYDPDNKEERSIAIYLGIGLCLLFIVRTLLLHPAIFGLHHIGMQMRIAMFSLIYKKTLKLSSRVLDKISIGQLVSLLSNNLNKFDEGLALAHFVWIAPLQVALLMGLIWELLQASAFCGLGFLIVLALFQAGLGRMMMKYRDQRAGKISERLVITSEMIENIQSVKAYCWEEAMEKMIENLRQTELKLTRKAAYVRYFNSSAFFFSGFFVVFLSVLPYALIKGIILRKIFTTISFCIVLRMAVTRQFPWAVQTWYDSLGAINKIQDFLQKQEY
# Description: (§1) HEK293 cells were transfected with MSD1- or MSD2-fragments as previously described.[39] After 18 h, cells were treated with either 0.2% DMSO or ARN23765 (10 nM). Following 24 h treatment, the protein synthesis was stopped by addition of a medium containing 0.5 mg/mL cycloheximide and either DMSO (0.2%) or ARN23765 (10 nM). The cells were incubated at 37 °C and lysed at various time periods (0–6 h). The whole cell extracts were then analyzed by WB, as described in the supplementary methods of the Supporting Information.
# [2] = molecular target: T2, CFTR MSD2 (Homo sapiens, UniProt P13569); assay: as above; assay type: cell-based; conditions: HEK293, 10 nM 24 h, then 6 h of cycloheximide treatment
# T2 construct: A52-tagged MSD2 (residues 837–1196); expressed in transfected cells; host or cells: HEK293 (transient, JetPEI)
# T2 sequence (P13569 837-1196): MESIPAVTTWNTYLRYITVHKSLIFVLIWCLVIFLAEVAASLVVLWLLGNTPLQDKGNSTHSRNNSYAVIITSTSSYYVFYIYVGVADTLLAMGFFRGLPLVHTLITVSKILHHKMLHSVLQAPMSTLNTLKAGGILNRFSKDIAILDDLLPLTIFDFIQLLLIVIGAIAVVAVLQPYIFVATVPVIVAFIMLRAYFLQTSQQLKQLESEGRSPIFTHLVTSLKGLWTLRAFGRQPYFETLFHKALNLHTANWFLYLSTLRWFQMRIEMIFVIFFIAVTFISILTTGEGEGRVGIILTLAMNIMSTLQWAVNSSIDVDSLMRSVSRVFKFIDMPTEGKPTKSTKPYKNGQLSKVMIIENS
# Description: as §1
# [3] = molecular target: T3, wt-CFTR (Homo sapiens, UniProt P13569); assay: Live-cell photoaffinity labeling, streptavidin pull-down and CFTR Western blot; assay type: binding; conditions: wt-CFTR CFBE41o- cells, 25-fold excess (25 μM) competitor 30 min before probe (1 μM)
# T3 construct: expressed in transfected cells
# T3 sequence (P13569 whole entry): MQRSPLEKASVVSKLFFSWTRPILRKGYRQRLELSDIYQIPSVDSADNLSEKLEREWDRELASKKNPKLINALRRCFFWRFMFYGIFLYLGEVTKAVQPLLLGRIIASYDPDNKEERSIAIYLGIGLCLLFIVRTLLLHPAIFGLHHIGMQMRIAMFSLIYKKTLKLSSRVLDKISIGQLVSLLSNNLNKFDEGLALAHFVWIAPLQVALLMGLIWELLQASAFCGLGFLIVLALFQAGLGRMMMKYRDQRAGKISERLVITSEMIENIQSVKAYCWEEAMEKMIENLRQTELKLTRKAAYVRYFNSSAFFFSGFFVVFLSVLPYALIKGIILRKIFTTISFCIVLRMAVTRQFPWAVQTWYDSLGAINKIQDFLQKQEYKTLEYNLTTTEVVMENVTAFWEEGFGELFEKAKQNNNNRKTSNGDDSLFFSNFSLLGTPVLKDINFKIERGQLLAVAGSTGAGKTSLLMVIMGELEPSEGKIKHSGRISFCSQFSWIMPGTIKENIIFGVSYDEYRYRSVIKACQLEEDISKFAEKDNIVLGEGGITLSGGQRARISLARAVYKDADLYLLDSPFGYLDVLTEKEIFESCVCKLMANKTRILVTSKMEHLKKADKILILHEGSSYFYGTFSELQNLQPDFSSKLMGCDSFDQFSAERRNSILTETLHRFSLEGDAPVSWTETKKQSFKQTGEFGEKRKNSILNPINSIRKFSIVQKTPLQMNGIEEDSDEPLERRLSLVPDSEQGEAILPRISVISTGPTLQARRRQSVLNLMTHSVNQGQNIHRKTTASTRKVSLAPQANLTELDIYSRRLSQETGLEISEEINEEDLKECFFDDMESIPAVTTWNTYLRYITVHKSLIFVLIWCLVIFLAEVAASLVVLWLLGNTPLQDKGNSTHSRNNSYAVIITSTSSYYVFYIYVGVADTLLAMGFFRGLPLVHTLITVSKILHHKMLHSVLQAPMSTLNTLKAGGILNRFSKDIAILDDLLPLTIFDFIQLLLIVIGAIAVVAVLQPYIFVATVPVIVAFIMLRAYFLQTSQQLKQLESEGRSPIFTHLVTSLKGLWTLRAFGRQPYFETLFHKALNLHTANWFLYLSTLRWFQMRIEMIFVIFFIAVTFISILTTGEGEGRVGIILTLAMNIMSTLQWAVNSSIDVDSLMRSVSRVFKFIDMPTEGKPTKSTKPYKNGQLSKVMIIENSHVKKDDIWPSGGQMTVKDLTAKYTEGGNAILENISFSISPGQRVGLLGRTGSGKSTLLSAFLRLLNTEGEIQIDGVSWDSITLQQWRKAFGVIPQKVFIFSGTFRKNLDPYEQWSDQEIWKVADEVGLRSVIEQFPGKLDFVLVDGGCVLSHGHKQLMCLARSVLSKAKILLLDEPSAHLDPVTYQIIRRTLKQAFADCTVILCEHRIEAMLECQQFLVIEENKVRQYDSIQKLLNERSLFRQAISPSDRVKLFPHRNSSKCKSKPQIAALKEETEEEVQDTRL
# Description: Wt-CFTR or F508del-CFTR CFBE41o- cells were plated at 2–2.5 × 10^6 cells/plate in 6 cm diameter dishes. The day after, sodium butyrate (5–2.5 mM) was added for 24 h; next, the medium was exchanged with fresh one supplemented with DMSO (0.25%) (276855, Sigma-Aldrich) or probe (1 μM). For competition experiments, a 25-fold excess of ARN23765 (25 μM) was added 30 min before probe’s addition. For the analysis of “corrected” F508del-CFTR, F508del-CFTR CFBE41o- cells were kept at 27 °C for 24 h before adding the probes. Probes were incubated with cells for 2 h, then the medium was removed, and plates were washed twice with phosphate buffer saline (PBS). Cells were placed on ice and irradiated for 5 min at a wavelength of 365 nm using a 100-W UV-lamp (95–0127–02 model B100-AP, Analytik Jena). Cells were harvested with trypsin (T4299, Sigma-Aldrich), washed with PBS (D8537, Sigma-Aldrich), and pellets were stored at −80 °C until used, centrifuged at 300 × g and washed twice with PBS (D8537, Sigma-Aldrich). Pellets from in-cell photoaffinity labeling with alkyne-probes (PAP_1 and PAP_2) were lysed in PBS plus protease inhibitor cocktail (78429, Thermo Scientific) by sonication. The suspension was centrifuged at 800 × g for 20 min at 4 °C to discard nuclei and cell debris. The total extracted proteins were quantified with the bicinchoninic acid (BCA) protein assay (23225, Thermo Scientific) and subjected to CuAAC before proceeding with pull-down. Pellets from in-cell photoaffinity labeling with desthio-biotinylated (DS-biot) probes (PAP_1 DS-biot, PAP_2 DS-biot, PAP_N1 DS-biot, PAP_N2 DS-biot) were lysed with a modified RIPA buffer [50 mM tris-HCl pH 8, 150 mM NaCl, 0.5% Triton-X100, 0.2% SDS, 1 mM ethylenediaminetetraacetic acid (EDTA)] supplemented with protease inhibitor cocktail and centrifuged at 10.000× g for 10 min. The protein content in the supernatant was quantified by BCA protein assay. Protein lysate (200 μg) was diluted to 800 μL and the Triton-X100 percentage was reduced to 0.2% before proceeding to pull-down.
# Copper-catalyzed azide–alkyne cycloaddition (CuAAC) was performed according to a previously described protocol.[62] Briefly, to the protein preparation (250 μL at 1 mg/mL protein concentration) the following reagents were added at the indicated final concentrations: 100 μM 5/6-TAMRA-azide-desthiobiotin (CLK-1110–5, Jena Bioscience), 1.0 mM tris-(2-carbossietil)phosphine (TCEP, C4706, Sigma-Aldrich), 100 μM tris-[(1-benzyl-1H-1,2,3-triazol-4-yl)methyl]amine (TBTA, 678937, Sigma-Aldrich), 1.0 mM CuSO4.5H2O (Sigma), and 0.8% sodium dodecyl sulfate (SDS). TBTA was first dissolved in DMSO at 83.5 mM and then diluted with four volumes of tert-butanol. The reaction was mixed by vortexing and incubated for 1 h at 25 °C. After the reaction time, proteins were precipitated with 5 volumes of cold acetone overnight at −20 °C. Samples were centrifuged for 20 min at 20.000× g, and the pellets were washed with methanol, air-dried, and finally resuspended with 600 μL of 1% SDS. SDS concentration was then diluted to 0.2% with PBS before proceeding to pull-down.
# High capacity streptavidin agarose (20359, Thermo Scientific) (25 μL) was added to PAP-labeled cell extracts for 1 h at room temperature under gentle rotation. The streptavidin beads were collected by centrifugation and washed four times with lysis buffer. Resin-bound proteins were eluted with 45 μL of 5 mM biotin (B4501, Sigma-Aldrich) for 30 min at room temperature and analyzed with Western blot for CFTR expression. Input samples (4 and 8 μg for wt-CFTR and F508del-CFTR CFBE41o-, respectively) were collected immediately before incubation with streptavidin resin. Input and pulled-down samples were analyzed with WB as described in the supplementary methods.
# [4] = molecular target: CFTR fragments containing MSD2 (Homo sapiens, UniProt P13569); assay: CFTR fragment stability analysis (WB) in transfected HEK293 cells; assay type: cell-based; conditions: HEK293, 24 h incubation, 10 nM
# Sequence of CFTR fragments containing MSD2 (P13569 850-1196 limits assumed): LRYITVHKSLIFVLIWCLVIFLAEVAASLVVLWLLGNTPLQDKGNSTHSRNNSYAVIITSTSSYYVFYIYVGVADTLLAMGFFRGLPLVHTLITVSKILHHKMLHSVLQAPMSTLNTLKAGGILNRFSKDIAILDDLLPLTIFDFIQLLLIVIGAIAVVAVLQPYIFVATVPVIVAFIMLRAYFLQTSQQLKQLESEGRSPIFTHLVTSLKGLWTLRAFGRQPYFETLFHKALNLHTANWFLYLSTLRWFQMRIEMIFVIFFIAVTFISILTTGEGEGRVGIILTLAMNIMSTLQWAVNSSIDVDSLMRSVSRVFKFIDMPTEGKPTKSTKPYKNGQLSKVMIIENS
# Description: (§2) CFTR correctors are expected to stabilize the expression of the protein domains with which they interact, resulting in an increased amount of protein.[35]−[37] To determinate the portion of CFTR with which ARN23765 interacts, constructs coding for CFTR fragments of different lengths (Figure 3A) were transfected in HEK293 cells, and the effect of 24 h incubation with ARN23765 on the expression of the truncated proteins was analyzed with WB. […] To better study ARN23765’s stabilization of MSD1 vs MSD2, we analyzed their expression in transfected HEK-293 cells over 6 h of cycloheximide treatment.
# (§3) Constructs coding for MSD1 (residues 1–380), A52-tagged MSD2 (residues 837–1196) and MSD2-NBD2 (residues 850–1480) were transfected in HEK293 cells using JetPEI reagent (101000053, Polyplus Technology). After 18 h transfection, cells were treated for 24 h with either 0.2% DMSO, VX-661 (3 μM), ARN23765 (10 nM) or corr-4a (10 μM). Cell lysates were analyzed by WB, as described in the dedicated paragraph.
# [5] = molecular target: CFTR fragments containing MSD1 (Homo sapiens, UniProt P13569); assay: as above; assay type: cell-based; conditions: HEK293, 24 h incubation, 10 nM
# Sequence of CFTR fragments containing MSD1 (P13569 1-380 limits assumed): as the sequence (P13569 1-380) above
# Description: as §2, §3
compound,measurement,setting,value
CN(C(=O)c1cccc(-n2nc(C(F)(F)F)c3c2[C@@H](Oc2ccc(C(=O)O)cc2)CCC3)c1)c1ccc2c(c1)OC(F)(F)O2 [ARN23765],MSD1 half-life,[1],increased
same,MSD2 stability,[2],no effect
same,Competition: CFTR recovered in pull-down by PAP_1 DS-biot or PAP_2 DS-biot after preincubation with competitor,[3],markedly reduced amount of the recovered protein
same,Expression of CFTR fragments containing MSD2 (WB),[4],no difference in expression
same,"Correction of CFTR with R domain deleted (delR construct, WB)",[5],still corrected
same,Expression of CFTR fragments containing MSD1 (WB),[5],increased expression
